From patent US20240309326A1, “Method of Isolating Adipose-Derived Cell Lines and Uses Thereof” (AGENCY FOR SCIENCE, TECHNOLOGY AND RESEARCH, priority 2021, published 2024)

Test system: Ph9F-1x
Assay: Adipogenesis of fish adipose-derived cell line (AdipoRed / Hoechst 33342 staining)
Type: cell-based, Pangasianodon hypophthalmus
Settings: for adipogenesis induction efficiency: addition to adipogenesis induction composition (FIGS. 22 and 25)
Description: Adipogenesis of adipose-derived cells were induced. The cells were resuspended at cell density of 100,000 cells/ml of complete growth medium and seeded at 100 μl/well into gelatin-coated 96-well flat-bottom black plates. The cells were incubated at 28° C. in a humidified atmosphere containing 5% CO2. […] After 3 and 6 days of adipogenic induction, the cells were induced with DMEM, 15% FBS, 0.1% fish serum, 300 U/ml of penicillin, 300 μg/mL of streptomycin, and adipogenic induction cocktail 2, containing 167 nM of insulin. Linoleic acid-oleic acid albumin (LAOA, Sigma-Aldrich), docosahexaenoic acid (DHA, Cayman Chemical), eicosapentaenoic acid (EPA, Cayman Chemical), oleic acid albumin (OAA, Sigma Aldrich), and linoleic acid albumin (LAA, Sigma Aldrich) can also be added to the adipogenic induction cocktail, if required. […] The cells were imaged using N-STORM/TIRF microscope and analysed using NIS-Element software.

[1] = 100 μM vitamin, Essential 6, fish serum, LAOA, IBMX, dexamethasone, after 6 days

Molecule	percentage of matured adipocytes [1]	total lipid content [1]	further results
oleic acid albumin [OAA]			percentage of matured adipocytes (100 μM, 6 days, as compared to LAA): significantly enhanced
CC(=O)Oc1c(C)c(C)c2c(c1C)CCC(C)(CCC[C@H](C)CCC[C@H](C)CCCC(C)C)O2 (stereo partly drawn) [α-tocopherol acetate]	did not significantly enhance	did not significantly enhance	
C=C1CC[C@H](O)C/C1=C/C=C1\CCC[C@]2(C)[C@@H]([C@H](C)CCCC(C)C)CC[C@@H]12 [vitamin D3]	did not significantly enhance	did not significantly enhance	total lipid content of matured adipocyte (intensity) (100 μM, 6 days, AdipoRed fluorescence intensity, borderline statistical significance): 3.5×10^9; adipogenesis induction efficiency: no adverse effects
CC(C)(CO)[C@H](O)C(=O)NCCC(=O)O [D-pantothenic acid]	did not significantly enhance	did not significantly enhance	
O=C1O[C@H]([C@@H](O)CO)C(O)=C1O [vitamin C]			adipogenesis induction efficiency: no adverse effects
O=C(O)CCCC[C@@H]1SC[C@@H]2NC(=O)N[C@@H]21 [biotin]	did not significantly enhance	did not significantly enhance	
CC/C=C\C/C=C\C/C=C\C/C=C\C/C=C\C/C=C\CCC(=O)O [DHA, docosahexaenoic acid]			nuclei count after adipogenesis (100 μM, final 3 days of adipogenesis): significantly reduced
